Test results as given in BindingDB's records for doi:10.1016/1074-5521(95)90124-8 (University of California San Diego, 1995).
Counter-ions that a name gives are not always drawn.

Tests used:
[1] = target: cAMP-dependent protein kinase (Oryctolagus cuniculus, UniProt Q95J97); test: Inhibition Assay; conditions: pH 7.5
Description: Cyclic AMP-dependent protein kinase (PKA) enzyme inhibition assay using purified recombinant C subunit of PKA (catalytic (C) subunit (cPKA)) with holoenzyme purified from rabbit muscle.

[2] = target: Protein kinase C beta type (Rattus norvegicus, UniProt P68403); test: Inhibition Assay; conditions: 30 °C
Protein kinase C beta type, sequence (P68403 whole entry): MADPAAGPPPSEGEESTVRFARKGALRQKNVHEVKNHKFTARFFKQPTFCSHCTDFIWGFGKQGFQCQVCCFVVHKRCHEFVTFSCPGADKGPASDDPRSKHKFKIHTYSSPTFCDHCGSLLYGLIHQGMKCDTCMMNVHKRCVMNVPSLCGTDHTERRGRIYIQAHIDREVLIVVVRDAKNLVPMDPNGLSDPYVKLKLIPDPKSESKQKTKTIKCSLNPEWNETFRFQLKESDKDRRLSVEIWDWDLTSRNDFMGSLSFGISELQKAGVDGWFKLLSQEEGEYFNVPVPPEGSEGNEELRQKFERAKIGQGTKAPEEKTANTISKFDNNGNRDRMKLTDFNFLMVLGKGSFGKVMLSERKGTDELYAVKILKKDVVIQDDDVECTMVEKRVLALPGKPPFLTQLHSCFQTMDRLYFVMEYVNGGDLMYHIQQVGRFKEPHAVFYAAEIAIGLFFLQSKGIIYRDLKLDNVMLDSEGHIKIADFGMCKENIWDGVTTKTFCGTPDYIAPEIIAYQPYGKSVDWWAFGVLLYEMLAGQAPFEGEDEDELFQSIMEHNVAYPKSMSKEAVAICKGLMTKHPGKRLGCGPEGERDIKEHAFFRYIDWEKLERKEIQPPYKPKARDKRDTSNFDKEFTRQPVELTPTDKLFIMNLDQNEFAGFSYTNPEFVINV

Structure (SMILES)	Ki [1] [µM]	IC50 ([2]; pH 7.5) [µM]	Ki ([2]; pH 7.5) [µM]	IC50 ([1]; 30 °C) [µM]	Ki ([1]; 30 °C) [µM]	IC50 [2] [µM]	Ki [2] [µM]
CN[C@@H]1C[C@H]2O[C@@](C)([C@@H]1OC)n1c3ccccc3c3c4c(c5c6ccccc6n2c5c31)C(=O)NC4	0.035	–	–	–	–	–	–
O=C(N[C@@H]1CNCCC[C@H]1OC(=O)c1cc(O)c(C(=O)c2ccccc2C(=O)O)c(O)c1)c1ccc(O)cc1	–	0.834	0.64	0.0063	0.0039	–	–
O=C(N[C@@H]1CNCCC[C@H]1OC(=O)c1ccc(C(=O)c2c(O)cccc2C(=O)O)cc1)c1ccc(O)cc1 [4'',6''-Dideoxybalanol, 6]	–	0.111	0.08	0.0055	0.0034	–	–
O=C(N[C@@H]1CNCCC[C@H]1OC(=O)c1cc(O)c(C(=O)c2c(O)cccc2C(=O)O)c(O)c1)c1ccccc1 [5'-Deoxybalanol, 7]	–	0.095	0.069	0.0057	0.0035	–	–
O=C(N[C@@H]1CNCCC[C@H]1OC(=O)c1cc(O)c(C(=O)c2ccccc2O)c(O)c1)c1ccc(O)cc1 [14''-Decarboxybalanol hydrochloride, 5]	–	–	–	0.018	0.011	6.9	5
O=C(N[C@@H]1CNCCC[C@H]1OC(=O)c1cc(O)c(C(=O)c2c(O)cccc2C(=O)O)c(O)c1)c1ccc(O)cc1 [Acyclic Balanol Analog (-)-1]	–	–	–	–	–	–	0.0053
COC(=O)c1cc(O)c(C(=O)c2c(O)cccc2C(=O)O)c(O)c1 [Benzophenone fragment, 2]	–	–	> 1000	–	> 10	–	–
O=S(ONCCNC/C=C/c1ccc(Br)cc1)c1cccc2cnccc12 (stereo unspecified) [H-89, 10]	0.048	–	–	–	–	–	31.7
O=C(N[C@@H]1CNCCC[C@H]1O)c1ccc(O)cc1 [Hexahydroazepine, 3]	> 10	–	–	–	–	–	> 1000
CCCCCCOC(=O)[C@@]1(O)CC2O[C@]1(C)n1c3ccccc3c3c4c(c5c6ccccc6n2c5c31)C(=O)NC4 [KT5720, 9]	0.056	–	–	–	–	–	> 2
